As a reminder, the inhibition is how much of the control response was suppressed. Low values mean a response near the control, high ones a response far below the control. By IC50 is commonly meant the midpoint of a concentration-inhibition curve.

The source of these data is patent publication US5212170A, “Psychotropic piperidinylmethyl benzodioxans” (American Home Products Corporation, priority 1992, dated 1993).

The structures appear in SMILES notation.

The target in test [1] is T1, serotonin 5-HT1A receptor (Rattus norvegicus, UniProt P19327).
T1 construct: following the procedure of Hall et al., J. Neurochem; 44, 1685 (1985); from tissue
T1 sequence (P19327 1-422): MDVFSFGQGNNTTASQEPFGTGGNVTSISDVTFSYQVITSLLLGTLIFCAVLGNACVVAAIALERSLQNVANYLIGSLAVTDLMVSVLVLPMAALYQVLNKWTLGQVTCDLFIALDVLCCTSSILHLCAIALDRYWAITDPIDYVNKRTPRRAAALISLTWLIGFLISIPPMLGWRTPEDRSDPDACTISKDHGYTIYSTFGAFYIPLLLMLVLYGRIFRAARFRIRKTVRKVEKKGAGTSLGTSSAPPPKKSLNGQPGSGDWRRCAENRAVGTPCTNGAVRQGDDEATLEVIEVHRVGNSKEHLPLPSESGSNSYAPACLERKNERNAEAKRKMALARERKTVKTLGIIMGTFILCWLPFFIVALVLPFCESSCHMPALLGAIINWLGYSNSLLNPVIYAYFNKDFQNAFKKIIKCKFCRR
Description: 5-HT1A Binding (displacement of [3H] 8-OHDPAT). An excerpt:
High affinity for the serotonin 5-HT1A receptor was established by testing the claimed compound's ability to displace [^3 H] 8-OHDPAT (dipropylaminotetralin) from the 5-HT1A serotonin receptor following the procedure of Hall et al., J. Neurochem. 44, 1685 (1985). […] The anxiolytic activity of buspirone is believed to be, at least partially, due to its 5-HT1A receptor affinity (Vander Maclen et al., Eur. J. Pharmacol. 1986, 129 (1-2) 133-130).
A general note: Displacement assays read how much labelled ligand stays bound in the presence of the test substance.

In test [2] the target is T2, dopamine D-2 receptor (Rattus norvegicus, UniProt P61169).
T2 construct: from tissue; host or cells: homogenized limbic brain tissue
T2 sequence (P61169 whole entry): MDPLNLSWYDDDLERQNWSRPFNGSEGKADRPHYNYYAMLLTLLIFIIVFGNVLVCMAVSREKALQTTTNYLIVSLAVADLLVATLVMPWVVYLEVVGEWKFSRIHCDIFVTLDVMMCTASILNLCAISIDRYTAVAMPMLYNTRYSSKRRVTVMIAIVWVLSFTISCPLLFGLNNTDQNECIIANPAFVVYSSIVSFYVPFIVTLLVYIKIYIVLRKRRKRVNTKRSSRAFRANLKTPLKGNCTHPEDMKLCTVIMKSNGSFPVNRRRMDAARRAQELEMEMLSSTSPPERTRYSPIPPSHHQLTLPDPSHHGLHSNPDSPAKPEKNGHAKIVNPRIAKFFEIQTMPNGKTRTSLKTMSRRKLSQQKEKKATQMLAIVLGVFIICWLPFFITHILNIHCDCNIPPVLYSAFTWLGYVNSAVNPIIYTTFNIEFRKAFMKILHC
Description: D-2 Binding (3H-spiroperidol, homogenized limbic brain tissue). The method, then: High affinity for the dopamine D-2 receptor was established by the standard experimental test procedure of Fields, et al., Brain Res., 136, 578 (1977) and Yamamura et al., eds., Neurotransmitter Receptor Binding, Raven Press, N.Y. (1978) wherein homogenized limbic brain tissue is incubated with ^3 H-spiroperidol and various concentrations of test compound, filtered and washed and shaken with Hydrofluor scintillation cocktail (National Diagnostics) and counted in a Packard 460 CD scintillation counter.

For test [3], the system named is 5-HT1A receptor site. The settings on record: cited from earlier work.
The subject of test [4] is 5-HT1A serotonin receptor subtype. The settings on record: standard for anxiolytic activity; cited from earlier work.

With `O=C1C2C3C=CC(C4C=CC43)C2C(=O)N1C1CCN(CC2COc3ccccc3O2)CC1` (stereo not drawn) [Example 2, 3a, 4,4a, 6a, 7,7a-Hexahydro-2-[1-[(2,3-Dihydro-1,4-benzodioxin-2-yl)methyl]-4-piperidinyl]-4,7-etheno-1H-cyclobut[f]isoindole-1,3(2H)-dione], 0.1 µM produced 4% inhibition in test [1].
In turn, `O=C(NC1CCN(CC2COc3ccccc3O2)CC1)C12CC3CC(CC(C3)C1)C2` (stereo not drawn) [Example 1, N-[1-[(2,3-Dihydro-1,4-benzodioxin-2-yl)methyl]-4-piperidinyl]tricyclo[3.3.1.1^3,7]decane-1-carboxamide] came in with an inhibition at 1 µM in test [2] of 29%. In test [1], the IC50 was determined as 107 nM and testing at 0.1 µM gave an inhibition of 59%.
As for `O=C(NCC1CCN(CC2COc3ccccc3O2)CC1)C12CC3CC(CC(C3)C1)C2` (stereo not drawn) [Example 5, N-[[1-[(2,3-Dihydro-1,4-benzodioxin-2-yl)methyl]-4-piperidinyl]methyl]tricyclo[3.3.1.1^3,7]decane-1-carboxamide], the inhibition at 1 µM in test [2] came to 52%. The same molecule yielded an inhibition at 0.1 µM in test [1] of 92%.
Regarding `O=C1c2ccccc2S(=O)(=O)N1C1CCN(CC2COc3ccccc3O2)CC1` (stereo not drawn) [Example 3, 2-[1-[(2,3-Dihydro-1,4-benzodioxin-2-yl)methyl]-4-piperidinyl]-1,2-benzoisothiazol-3(2H)-one 1,1-dioxide], the inhibition at 0.1 µM in test [1] is 45%.
For `O=C1C2CC(C(=O)N1CC1CCN(CC3COc4ccccc4O3)CC1)C1C2C2C3CC4C2C4C31` (stereo not drawn) [Example 4, 3-[[1-[(2,3-Dihydro-1,4-benzodioxin-2-yl)methyl]-4-piperidinyl]methyl]decahydro-2H-1,5-methano-6,7,9-methenopentaleno[1,2-d]azepine-2,4(3H)-dione], the inhibition at 1 µM in test [2] was 97%. Also, in test [1], the inhibition at 0.1 µM was 96%.
As to `O=C1CC2(CCCC2)CC(=O)N1CCCCNCC1COc2ccccc2O1` (single isomer, unassigned; (-)) [(-)-MDL 72832], the “binding at the 5-HT1A receptor site relative to the dextrorotary isomer” value in test [3] ((-)-isomer vs dextrorotary isomer) is 32 times.
With `O=C1CC2(CCCC2)CC(=O)N1CCCCN1CCN(c2ncccn2)CC1` [buspirone], the “affinity for the 5-HT1A serotonin receptor subtype” value in test [4] is recorded as “potent affinity”.
In the case of `O=C1CC2(CCCC2)CC(=O)N1CCCCNCC1COc2ccccc2O1` (stereo not drawn) [MDL 72832, 8-[4-(1,4-benzodioxan-2-ylmethylamino)butyl]-8-azaspiro[4.5]decane-7,9-dione], in test [3] (Fozard et al. 1987), the “ligand selectivity for 5-HT1A receptors” value is “selective and stereospecific”.
